Measured values taken from patent US20240116889A1, “ANTIVIRAL COMPOUNDS AND METHODS” (priority 2019, published 2024).
Like-named read-outs stand apart in the source and are kept apart here.

Key:
[1] = tested on: USSR H1N1 virus; format: cell-based, influenza A virus (A/USSR/77)
[2] = tested on: pdm H1N1 virus; format: cell-based, influenza A virus (A/California/07/2009); settings: NPTr cells; 0.5 μM TG 30 min; […]
[3] = tested on: hCoV OC43; experiment: hCoV OC43 replication in A549 cells (RT-qPCR); format: cell-based, human coronavirus OC43
[4] = tested on: RSV; experiment: RSV replication in A549 cells (pfu/ml by immunostaining); format: cell-based, human respiratory syncytial virus; settings: 30 min TG priming, 72 h infection
Method: FIG. 37—Pre- and post-infection priming with TG 24 h inhibited RSV replication. […] (A) In pre-infection, cells primed with TG or control DMSO, washed with PBS, cultured in fresh media for 24 h and infected with RSV at 0.1 MOI for 2 h followed by media replacement with fresh DMEM containing 2% FCS. (B) In post-infection, cells were first infected similarly for 24 h, then primed with TG or DMSO for 30 min, washed with PBS and replaced with fresh media. In both treatment groups (A and B), cells were infected for a total period of 72 h, after which spun supernatants were used to determine progeny virus output (pfu/ml) on HEp2 cells by immunostaining with mouse anti-RSV (F27) antibody. HEp2 cells were more permissive to RSV replication than A549 cells. (C) Comparison of TG and ribavirin (Riba) in the inhibition of RSV replication. HEp-2 cells were primed with TG, Riba or control DMSO as indicated for 30 min, rinsed with PBS and infected with RSV. Riba was continuously present during infection. Four days post-infection, media were sampled for the detection of viral M-gene RNA by one-step reverse transcription-qPCR. Unless otherwise indicated, significance (based on one-way ANOVA with Tukey's multiple comparison test) is relative to DMSO control.

[5] = Tolerability of TG given to mice by oral gavage; settings: 1 mg/kg
[6] = NPTr cells, 30 min priming, […]

SMILES: C/C=C(/C)C(=O)O[C@H]1C(C)=C2[C@H]([C@@H]1OC(=O)CCCCCCC)[C@@](C)(OC(C)=O)C[C@H](OC(=O)CCC)[C@@]1(O)[C@H]2OC(=O)[C@@]1(C)O [TG, thapsigargin]
- progeny virus output vs DMSO control [1]: marked reduction in virus output
- virus reduction ([1]; NPTr cells pre-primed with 0.1 μM TG for 30 min): 82%
- virus reduction ([1]; NPTr cells pre-primed with 0.5 μM TG for 30 min): 93%
- duration of the antiviral state after TG exposure ([1]; NPTr cells, 0.5 μM TG for 30 min): at least 24 h
- IC50 [1, 6]: 7.12 nM
- Selectivity index (CC50/IC50) [1, 6]: 7952.21
- virus production, TG before vs 6 h after infection [2]: comparable reduction in virus production
- hCoV OC43, separate infection and co-infection with USSR H1N1 [3]: blocked
- blocking of hCoV OC43 replication, comparison with RDV ([3]; A549 cells, TG 30 min priming vs continuous RDV, […]): superior to remdesivir (RDV)
- RSV replication, priming 24 h before or 24 h post-infection [4]: strongly inhibited RSV replication
- clinical adverse effects [5]: no detectable clinical adverse effects
